{
  "source": "patent US20100028469A1",
  "about": "“Extracts of Cranberry and Methods of Using Thereof” (priority 2008, published 2010)",
  "key": {"[1]": {"test": "Human pharmacokinetic study, urine (DART TOF-MS)", "format": "in vivo", "method": "(§1) Cranberry extracts 5 and 6 were prepared by HerbalScience Singapore Pte. Ltd. and prepared as 150-mg and 140-mg capsules, respectively. Each pharmacokinetic study (1 per extract) consisted of five healthy consenting adults ranging in age from 25 to 50 were instructed not to consume foods rich in phenolics 24 hours prior to the initiation of the study. A certified individual collected urine samples at several time intervals between 0 and 480 minutes after two capsules of a cranberry extract were ingested immediately after the time zero time point. Blood samples were handled with approved protocols and precautions, centrifuged to remove cells and the serum fraction was collected and frozen. Blood was not treated with heparin to avoid any analytical interference. Serum samples were stored frozen at −20° C. until analysis. The serum was extracted with an equal volume of neat ethanol (USP) to minimize background of proteins, peptides, and polysaccharides present in serum. The ethanol extract was centrifuged at 9300×g for 10 minutes at 4° C., the supernatant was removed, concentrated to 200 μL volume which was then used for DART TOF-MS analyses (FIG. 10). Urine samples were handled with approved protocols and precautions and frozen. Serum samples were stored frozen until analysis. The urine samples were analyzed neat by DART TOF-MS (FIGS. 11 and 12)."}, "[2]": {"test": "Human pharmacokinetic study, serum (DART TOF-MS)", "format": "in vivo", "conditions": "5 healthy adults, Extract 5 300 mg oral", "method": "as §1"}},
  "data": [
    {"compound": "O=C(O)c1ccc(O)cc1", "note": "[4-hydroxybenzoic acid]", "values": [
      {"measurement": "time of appearance in urine", "setting": "[1]; human, in vivo, po", "result": "≤ 1", "unit": "h"},
      {"measurement": "time through which urine levels increased (declined thereafter)", "setting": "[1]; human, in vivo, po", "result": 2, "unit": "h"},
      {"measurement": "presence in urine at 8 hours post-ingestion", "setting": "[1]; in vivo, po", "result": "still present"}
    ]},
    {"compound": "C[C@@H](O)[C@H](N)C(=O)O", "note": "[L-threonine]", "values": [
      {"measurement": "time of appearance in urine", "setting": "[1]; human, in vivo, po", "result": "≤ 1", "unit": "h"},
      {"measurement": "time through which urine levels increased (declined thereafter)", "setting": "[1]; human, in vivo, po", "result": 2, "unit": "h"}
    ]},
    {"compound": "CC1=CC(=O)CC(C)(C)[C@@]1(O)/C=C/C(C)=C\\C(=O)O", "note": "[abscisic acid]", "values": [
      {"measurement": "time after which undetectable in serum", "setting": "[2]", "result": 180, "unit": "min"},
      {"measurement": "time through which serum levels increased (declined thereafter)", "setting": "[2]", "result": "about 40 minutes"},
      {"measurement": "abundance in urine relative to other bioactives", "setting": "[1]; Extract 5 300 mg oral", "result": "most abundant"},
      {"measurement": "time of peak level in urine", "setting": "[1]; Extract 5 300 mg oral", "result": 2, "unit": "h"},
      {"measurement": "presence in urine at 8 hours post-ingestion", "setting": "[1]; two vegcaps Extract 6 oral", "result": "still present"},
      {"measurement": "time through which urine levels increased (declined thereafter)", "setting": "[1]; two vegcaps Extract 6 oral", "result": 2, "unit": "h"}
    ]},
    {"compound": "NCC(=O)CCC(=O)O", "note": "[aminolevulenic acid]", "values": [
      {"measurement": "time of appearance in urine", "setting": "[1]; in vivo, po", "result": "≤ 1", "unit": "h"},
      {"measurement": "time through which urine levels increased (declined thereafter)", "setting": "[1]; in vivo, po", "result": 2, "unit": "h"}
    ]},
    {"compound": "O=CC=Cc1ccccc1", "note": "[cinnamaldehyde]", "values": [
      {"measurement": "time of appearance in urine", "setting": "[1]; human, in vivo, po", "result": "≤ 1", "unit": "h"},
      {"measurement": "time through which urine levels increased (declined thereafter)", "setting": "[1]; human, in vivo, po", "result": 2, "unit": "h"},
      {"measurement": "presence in urine at 8 hours post-ingestion", "setting": "[1]; in vivo, po", "result": "still present"}
    ]},
    {"compound": "COc1ccc(C2COc3cc(O)ccc3C2)c(O)c1", "note": "(stereo not shown) [vestitol]", "values": [
      {"measurement": "presence in urine at 8 hours post-ingestion", "setting": "[1]; in vivo, po", "result": "still present"},
      {"measurement": "time of appearance in urine", "setting": "[1]; in vivo, po", "result": "≤ 1", "unit": "h"},
      {"measurement": "time through which urine levels increased (declined thereafter)", "setting": "[1]; in vivo, po", "result": 2, "unit": "h"}
    ]},
    {"compound": "c1ccc(-c2cc3ccccc3[nH]2)cc1", "note": "[α-phenylindol]", "values": [
      {"measurement": "presence in urine at 8 hours post-ingestion", "setting": "[1]; in vivo, po", "result": "still present"},
      {"measurement": "time of appearance in urine", "setting": "[1]; in vivo, po", "result": "≤ 1", "unit": "h"},
      {"measurement": "time through which urine levels increased (declined thereafter)", "setting": "[1]; in vivo, po", "result": 2, "unit": "h"}
    ]},
    {"compound": "S-petasine", "values": [
      {"measurement": "time after which undetectable in serum", "setting": "[2]", "result": 180, "unit": "min"},
      {"measurement": "time through which serum levels increased (declined thereafter)", "setting": "[2]", "result": "about 40 minutes"},
      {"measurement": "time through which urine levels increased (declined thereafter)", "setting": "[1]; two vegcaps Extract 6 oral", "result": 2, "unit": "h"}
    ]},
    {"compound": "chitosan", "values": [
      {"measurement": "presence in urine at 8 hours post-ingestion", "setting": "[1]; in vivo, po", "result": "still present"},
      {"measurement": "time of appearance in urine", "setting": "[1]; in vivo, po", "result": "≤ 1", "unit": "h"},
      {"measurement": "time through which urine levels increased (declined thereafter)", "setting": "[1]; in vivo, po", "result": 2, "unit": "h"}
    ]}
  ]
}
